Assay results as given in patent US20210163404A1, “NOVEL UREA COMPOUNDS AND BIOISOSTERES THEREOF AND THEIR USE FOR TREATING INFLAMMATION AND INFLAMMATION-RELATED PATHOLOGIES” (UNIVERSITÉ LAVAL, priority 2017, published 2021).

Experiments:
IL-6 = IL-6 expression in HaCaT cells stimulated with IL-17A and TNFα (ELISA); assay type: cell-based, human; settings: 10 μM solutions; HaCaT stimulated with IL-17A and TNFα; mean of five experiments in duplicate
Excerpt: The effect of compounds 3a-b, 4a-e, 5a-e and 6a-e on the expression of IL-6 was subsequently assessed using the HaCaT spontaneously transformed aneuploid immortal keratinocyte cell line, stimulated by the addition of IL-17A and TNFα in the culture medium (Table 1). Curcumin and ibuprofen were used as known IL-6 expression inhibitors. DMSO was used for solubilizing the drugs. […] Indeed, the inhibitory effect of these molecules was at least equivalent to that of curcumin [27] and ibuprofen, both recognized as anti-inflammatory drugs. The inhibitory effect of the substituted phenyl cycloalkylureas in accordance with an embodiment of the present disclosure on proinflammatory cytokines was also found at the mRNA level. Indeed, the mRNAs of the cytokines IL-6 and TNF-α as well as the mRNA of the chemokine IL-8 were lowered in TNF-α/IL-17A-stimulated HaCaT cells. Similar results were obtained in THP-1 cells stimulated with LPS where treatments with CHEU and 4e diminished the mRNA levels of the cytokines IL-1B, IL-6 and TNF-α in addition to the mRNA levels of the chemokine IL-8. It is surmised that the anti-inflammatory mechanism of action of the compounds of the present disclosure is likely mediated, at least in part, by modulating the phosphorylation state of the MAP kinase p38. […] Addition of a compound in accordance with an embodiment of the present disclosure, prior to stimulation with the aforementioned cytokines, decreases the level of p-p38 at 30-60 minutes post-stimulation. This diminution in p-p38 levels destabilizes the mRNAs of pro-inflammatory cytokines, non-limiting examples of which include TNF-α and IL-6. Moreover, it is surmised that the effect of the compounds of the present disclosure on p-p38 is potentially mediated by the activation of the phosphatase named DUSP1.
HaCaT cells (1×10^5) were suspended in DMEM culture media (500 μL) and incubated for 24 h in 24-well microtiter plates at 37° C. in a moisture-saturated atmosphere containing 5% CO2. Compounds were solubilized in DMSO and diluted in fresh DMEM. The compound (500 μL) was then added to the cell medium to obtain a final concentration of […] and the cells incubated over a period of 1 hour. In the meantime, IL-17α (200 ng/mL) and TNFα (20 ng/mL) (PeproTech, Rocky Hill, N.J.) were added to the drug solution in DMEM. Following the initial incubation of the cells, the culture medium was aspirated from each well and the IL-17α+ TNFα+ compound solution was added to each well for incubation (6 hours). The culture media was then removed and transferred to a clean tube (1.5 mL) at −80° C. until the ELISA test was performed. The presence of IL-6 in the cell media was determined using an IL-6 human Duoset ELISA kit (Fisher Scientific, Ottawa, On.) according to the manufacturer's instructions. Standards and samples were prepared and assessed in duplicate. Two separate replicates were performed for each sample. The absorbance was measured at 450 nm and 540 nm using a TECAN infinite M1000 plate reader.

[1] = test system: A549 adenocarcinoma alveolar epithelial cancer cells; test: Antiproliferative activity (NCI procedure, sulforhodamine B), A549; assay type: cell-based, human; settings: Homo sapiens, A549, 48 h; for GI50: Table 2; for IC50: unit inferred, tested 781 nM to 100 μM
Method: (§1) The antiproliferative activity of compounds 3a-b, 4a-e, 5a-e and 6a-e was subsequently evaluated using the human HT-29 colon adenocarcinoma and the A549 adenocarcinoma alveolar epithelial cancer cell lines, the HaCaT spontaneously transformed aneuploid immortal keratinocyte cell line and the HDFn neonatal dermal fibroblast cell line (Table 2). Cell growth inhibition was assessed according to the NCI/NIH Developmental Therapeutics Program.
(§2) The antiproliferative activity assay of all compounds was assessed using the procedure recommended by the National Cancer Institute for its drug screening program with minor modifications. Briefly, 96-well microtiter plates were seeded with 75 μL of a suspension of either HaCaT (5×10^3), HT-29 (3.0×10^3), A549 (3.0×10^3) or HDFn (3×10^3) cells per well in DMEM and incubated for 24 h at 37° C. in a moisture-saturated atmosphere containing 5% CO2. Compounds freshly solubilized in DMSO (40 mM) were diluted in fresh DMEM, and 75 μL aliquots containing serially diluted concentrations of the compound were added. Final compound concentrations ranged from 100 μM to 781 nM. DMSO was maintained at a concentration of <0.5% (v/v) to avoid any related cytotoxicity. Plates were subsequently incubated for 48 h. Cell growth was then stopped by the addition of cold trichloroacetic acid to the wells (10% w/v, final concentration), followed by a 1 h incubation period at 4° C. The plates were washed 4-times with water. A sulforhodamine B solution (75 μL; 0.1% w/v) in acetic acid (1%) was subsequently added to each well and the plates incubated over a 15 min period while at room temperature. After staining, any unbound dye was removed by washing 4-times with an acetic acid solution (1%). Bound dye was solubilized in 20 mM Tris base and the absorbance was measured at an optimal wavelength (530-568 nm) using a μQuant® Universal microplate spectrophotometer (BioTek, Winooski, Vt.). The measurements for treated cells were compared with measurements from control cell plates fixed on treatment day and the percentage of cell growth inhibition was calculated for each drug. The experiments were performed at least twice in triplicate. The assays were considered valid when the coefficient of variation for a given set of conditions and within the same experiment was <10%.

[2] = test system: HaCaT keratinocyte cell line; test: Antiproliferative activity (NCI procedure, sulforhodamine B), HaCaT; assay type: cell-based, human; settings: Homo sapiens, HaCaT, 48 h; for GI50: Table 2; for IC50: unit inferred, tested 781 nM to 100 μM
Method: as §1, §2

[3] = test system: HT-29 colon adenocarcinoma cells; test: Antiproliferative activity (NCI procedure, sulforhodamine B), HT-29; assay type: cell-based, human; settings: Homo sapiens, HT-29, 48 h; for GI50: Table 2; for IC50: unit inferred, tested 781 nM to 100 μM
Method: as §1, §2

[4] = test system: HDFn neonatal dermal fibroblast cell line; test: Antiproliferative activity (NCI procedure, sulforhodamine B), HDFn; assay type: cell-based, human; settings: Homo sapiens, Fibroblast, 48 h; for GI50: Table 2; for IC50: unit inferred, tested 781 nM to 100 μM
Method: as §1, §2

HaCaT cells = test: Cell cycle analysis by flow cytometry; assay type: cell-based, human; settings: 10 μM, 24 h
Method: The effect of compounds 3a-b, 4e, 5b-c, 6a and 6e on cell cycle progression was subsequently assessed using a flow cytometer in accordance with established experimental protocols to evaluate any potential drug toxicity at specific phases of the cell cycle (Table 3).
HaCaT cells (2.5×10^5) were incubated with compounds 3a-b, 4e, 5b-c, 6a and 6e and curcumin (10 μM) over a period of 24 h. The cells were subsequently trypsinized, washed with PBS, resuspended in PBS (250 μL), fixed by the addition of ice-cold EtOH (750 μL) under agitation and stored at −20° C. until analysis. Prior to FACS analysis, cells were washed with PBS and resuspended in PBS (500 μL) containing 4′,6′-diamidino-2-phenylindole (DAPI) (2 μg/mL). The cell cycle was analyzed using an LSR II flow cytometer (BD Biosciences, Franklin Lakes, N.J.).

melting point [°C]	SMILES	Expression of IL-6, HaCaT (IL-6) [pg/mL]	GI50 [1] [µM]	IC50 ([1]; Table 6) [µM]	GI50 [2] [µM]	IC50 ([2]; Table 6) [µM]	GI50 [3] [µM]	IC50 ([3]; Table 6) [µM]	GI50 [4] [µM]	IC50 ([4]; Table 6) [µM]	IC50 ([1]; Table 8) [µM]	IC50 ([2]; Table 8) [µM]	IC50 ([3]; Table 8) [µM]	IC50 ([4]; Table 8) [µM]	Cell cycle progression G0-G1 (HaCaT cells)	Cell cycle progression G2-M (HaCaT cells)	Cell cycle progression S (HaCaT cells)
–	O=C(Nc1ccc(I)cc1)NC1CC1 [Compound 20, 1-Cyclopropyl-3-(4-iodophenyl)urea]	47.9 ± 4.5	> 100	≥ 100	> 100	≥ 100	82	82	95	95	–	–	–	–	–	–	–
188 to 191	O=C(Nc1ccc(I)cc1)NC1CCCC1 [Compound 24, 1-Cyclopentyl-3-(4-iodophenyl)urea]	65.1 ± 7.6	62	62	> 100	≥ 100	9.7	9.7	> 100	≥ 100	–	–	–	–	–	–	–
138 to 139	CC(C)(C)c1ccc(NC(=O)NC2CC2)cc1 [Compound 27, 1-(4-(t-Butyl)phenyl)-3-cyclopropylurea]	91.9 ± 7.6	> 100	≥ 100	> 100	≥ 100	85	85	55	55	–	–	–	–	–	–	–
179 to 184	CC(C)(C)c1ccc(NC(=O)NCC2CCC2)cc1 [Compound 30, 1-(4-(t-Butyl)phenyl)-3-(cyclobutylmethyl)urea]	70.6 ± 7.6	> 100	≥ 100	35	35	21	21	8.2	8.2	–	–	–	–	–	–	–
153 to 154	O=C(Nc1cccc(I)c1)NC1CC1 [Compound 36, 1-Cyclopropyl-3-(3-iodophenyl)urea]	57.3 ± 4.4	84	84	> 100	≥ 100	> 100	≥ 100	79	79	–	–	–	–	–	–	–
138 to 140	O=C(NCC1CCC1)Nc1cccc(I)c1 [Compound 39, 1-(Cyclobutylmethyl)-3-(3-iodophenyl)urea]	90.2 ± 11.1	25	25	31	31	25	25	15	15	–	–	–	–	–	–	–
142 to 143	O=C(Nc1cccc(I)c1)NC1CCCC1 [Compound 40, 1-Cyclopentyl-3-(3-iodophenyl)urea]	89.8 ± 9.0	30	30	49	49	30	30	23	23	–	–	–	–	–	–	–
169 to 171	CC(C)(C)c1cccc(NC(=O)NC2CC2)c1 [Compound 44]	50.4 ± 2.6	> 100	≥ 100	> 100	≥ 100	> 100	≥ 100	> 100	≥ 100	–	–	–	–	–	–	–
152 to 154	CC(C)(C)c1cccc(NC(=O)NC2CCCC2)c1 [Compound 48, 1-(3-(t-Butyl)phenyl)-3-cyclopentylurea]	74.6 ± 6.7	34	34	> 100	≥ 100	27	27	84	84	–	–	–	–	–	–	–
154 to 162	S=C(Nc1ccc(I)cc1)NC1CCCC1 [Compound 102]	–	–	–	–	–	–	–	–	–	25.3	39.1	25.1	18.6	–	–	–
142 to 152	S=C(Nc1cccc(I)c1)NC1CC1 [Compound 103]	–	–	–	–	–	–	–	–	–	> 100	> 100	> 100	> 100	–	–	–
122 to 128	S=C(Nc1cccc(C2CCCCC2)c1)NC1CC1 [Compound 105]	–	–	–	–	–	–	–	–	–	15.9	16.3	12.7	14.7	–	–	–
102 to 110	S=C(NCC1CCC1)Nc1cccc(C2CCCCC2)c1 [Compound 106]	–	–	–	–	–	–	–	–	–	17	14.9	13.2	4.9	–	–	–
129 to 142	S=C(Nc1cccc(C2CCCCC2)c1)NC1CCCC1 [Compound 107]	–	–	–	–	–	–	–	–	–	6.2	7.9	5.7	3.8	–	–	–
–	CCNC(=O)Nc1ccc(C(C)(C)C)cc1 [tBEU, reference compound]	–	–	–	–	–	–	–	–	–	–	–	–	–	55.5	19.1	25.3
